Article PMC4984800, “A first in man, dose-finding study of the mTORC1/mTORC2 inhibitor OSI-027 in patients with advanced solid malignancies” (British Journal of Cancer, 2016)
Entries after “also recorded” stand apart in the source; their conditions may differ. Read-outs that look alike come from different tables or passages of the source.

Key:
[1] = preclinical toxicology studies; cited from earlier work
tumour cell lines = tested on: tumour cell lines; set-up: method as in Bhagwat et al, 2011; Falcon et al, 2011; conditions: including models resistant to rapalogues, ref Bhagwat et al, 2011, Falcon et al, read-out: IC50 values in a broad panel of tumour cell lines; cited from earlier work
pS6 in tumour biopsies = assay: Paired tumour biopsies: pS6 immunohistochemistry; assay type: in vivo, human
Experimental: (§1) Drug-mediated inhibition of the mTORC1 and mTORC2 signalling was evaluated through assessing modulation of phospho-4EBP1 and phospho-PRAS40 in PBMC, as well as phospho-4EBP1 and phospho-S6 in tumour biopsies. Blood aliquots were collected prior to start dosing and at prespecified time points during the first course of treatment. Fresh tumour biopsies were obtained from selected patients during the dose escalation stage and from all patients in the expansion cohorts, at baseline and during cycle 1.
(§2) Drug-mediated inhibition of mTORC1 and mTORC2 signalling by OSI-027 was assessed by measuring inhibition of their effectors p4EBP1 (Thr37/46) and pPRAS40 (Thr246), respectively, in PBMC. In addition, paired tumour biopsies at screening and during first month of therapy were used to study target modulation.
(§3) In 21 cases, pre- and postdose paired tumour biopsies were amenable for PD studies.

[2] = rodents; preclinical; cited from earlier work
[3] = tested on: p4EBP1 (Thr37/46) in PBMC; assay: Pharmacodynamics in PBMC: p4EBP1 (Thr37/46), mTORC1 effector; assay type: in vivo, human
Experimental: as §1, §2

pPRAS40 (Thr246) in PBMC = assay: Pharmacodynamics in PBMC: pPRAS40 (Thr246), mTORC2 effector; assay type: in vivo, human
Experimental: as §1, §2

mTORC1 = tested on: mTORC1; set-up: method as in Bhagwat et al, 2011; Falcon et al, 2011; conditions: ref Bhagwat et al, 2011, Falcon et al; cited from earlier work
mTORC2 = tested on: mTORC2; set-up: method as in Bhagwat et al, 2011; Falcon et al, 2011; conditions: ref Bhagwat et al, 2011, Falcon et al; cited from earlier work
tumour xenograft models = tested on: tumour xenograft models; set-up: method as in Bhagwat et al, 2011; Falcon et al, 2011; conditions: ref Bhagwat et al, 2011, Falcon et al; cited from earlier work
[4] = First-in-human trial: dose-limiting toxicities, adverse events, tolerability; assay type: in vivo
Text: Three different schedules of administration were investigated during the dose-escalation phase: once daily for three consecutive days every week (Schedule 1 (S1)), once weekly (Schedule 2 (S2)) and continuous once daily (Schedule 3 (S3)). The primary objective of the study was to determine MTD and recommend a dose and schedule of OSI-027 for phase 2 trials. Secondary objectives included tolerability, safety and pharmacokinetics profile, assessment of pharmacodynamics and preliminary antitumour activity.
Dose escalation was pursued independently for each schedule following a 3+3 design. Escalation was permitted if <33% patients on a dose level experienced dose-limiting toxicities (DLT), defined as any non-haematological adverse event grade ⩾3 (NCI-CTCAE v3) related with the study drug occurring during the first cycle of treatment (21 days), with the exception of […] fatigue, nausea, vomiting and/or diarrhoea. In addition, absolute reduction ⩾15% on LVEF was also considered DLT. MTD was defined as the immediately lower dose level to the one where ⩾33% of patients experienced DLT.
Adverse events and concomitant medications were recorded throughout the trial participation.
Guidelines for dose modifications were implemented; drug administration was halted and/or dose was reduced for creatinine increase grade ⩾2 and/or if absolute values of LVEF fell ⩾15% from baseline. Permanent treatment discontinuation was mandated for LVEF drops ⩾20%.

[5] = tested on: p4EBP1 in tumour biopsies; assay: Paired tumour biopsies: p4EBP1 immunohistochemistry; assay type: in vivo, human
Experimental: as §1, §2, §3

[6] = monkeys; preclinical; cited from earlier work
advanced solid tumours = assay: Preliminary antitumour activity (RECIST); assay type: in vivo, human
Experimental: Assessments by imaging techniques (CT and/or MRI) were performed every 8–12 weeks or earlier if clinically indicated. Descriptive statistics were used to summarise the safety data, including all patients who received at least one dose of OSI-027. All patients who completed the pharmacokinetic sampling were included in the PK analyses, which used descriptive statistics to summarise AUC0–∞, AUC0–t, Cmax, Clast, Tmax, Tlast, %AUC extrapolated, T1/2, clearance (Cl/F) and volume of distribution (Vz/F). Exploratory analysis were planned to correlate pharmacodynamics and pharmacokinetics. Response to treatment was evaluated according to Response Evaluation Criteria in Solid Tumors (RECIST) ([Therasse et al, 2000]).

[7] = 4 h after dosing, doses over 30 mg, almost universal
[8] = S1, 90 mg, during the 3 days on treatment
[9] = S1, 160 mg, during the 4-days off treatment, most patients
[10] = metastatic colorectal cancer, S3–10 mg

Question: For `COc1cccc2cc(-c3nc([C@H]4CC[C@H](C(=O)O)CC4)n4ncnc(N)c34)[nH]c12` [OSI-027], which preclinical toxicology findings [1] is on record?
Answer: signs of immunosuppression, renal function impairment, glucose metabolism abnormalities as well as potential for cardiac and ocular toxicities at high doses

Question: What about the IC50 (tumour cell lines) of the same compound?
Answer: < 10000 nM

Question: And the “average reduction in pS6 expression (IHC)” value (pS6 in tumour biopsies; 90 mg)?
Answer: 28.6%

Question: What about the “average reduction in pS6 (IHC)” value (pS6 in tumour biopsies; 120 mg) of the same compound?
Answer: 75.3%

Question: And the “maximum tolerated dose (MTD) in toxicology studies” value [2]?
Answer: 20 mg kg^−1 per day

Question: And the “inhibition of p4EBP1 in PBMC” value [3, 7]?
Answer: Over 50%

Question: What about the “inhibition of p4EBP1 in PBMC” value [3, 8] of the same compound?
Answer: Over 50%

Question: And the “target inhibition (p4EBP1) in PBMC” value [3, 9]?
Answer: Over 50%

Question: What about the “inhibition of pPRAS40 in PBMC” value (pPRAS40 (Thr246) in PBMC; [7]) of the same compound?
Answer: Over 50%

Question: And the “inhibition of pPRAS40 in PBMC” value (pPRAS40 (Thr246) in PBMC; [8])?
Answer: Over 50%

Question: What about the “target inhibition (pPRAS40) in PBMC” value (pPRAS40 (Thr246) in PBMC; [9]) of the same compound?
Answer: Over 50%

Question: And the IC50 (mTORC1)?
Answer: 22 nM

Question: What about the IC50 (mTORC2) of the same compound?
Answer: 65 nM

Question: What about the “anti tumour activity in tumour xenograft models” value (tumour xenograft models) of the same compound?
Answer: anti tumour activity was documented

Question: And the “highest potentially feasible dose” value ([4]; S1, QD three consecutive days per week)?
Answer: 120 mg

Question: And the MTD ([4]; S2, once weekly, 10 to 240 mg QWK tested)?
Answer: Dose escalation was discontinued before a formal MTD was reached

Question: And the MTD ([4]; S3, continuous once daily)?
Answer: 30 mg QD

Question: What about the “Maximum creatinine on treatment CTCAE grade 4, patients” value ([4]; human, in vivo) of the same compound?
Answer: 0

Question: What about the “creatinine rise (increase of at least one grade in CTCAE v3), patients” value ([4]; human, in vivo) of the same compound?
Answer: 26%

Question: What about the “cutaneous toxicities, mainly grade 1–2 macular or maculo-papular rash, patients” value ([4]; human, in vivo) of the same compound?
Answer: 25%

Question: What about the “patients who discontinued drug permanently due to drug-related adverse events” value ([4]; human, in vivo) of the same compound?
Answer: 8.1%

Question: What about the “patients with a grade ⩾3 drug-related event” value ([4]; human, in vivo) of the same compound?
Answer: 17%

Question: And the “patients with a drop in the LVEF” value ([4]; human, in vivo, 3 weeks)?
Answer: 38%

Question: And the Dose limiting toxicity ([4]; human, in vivo, 12 days)?
Answer: Elevated serum creatinine (G2)

Question: And the Dose limiting toxicity ([4]; human, in vivo, 13 days)?
Answer: Fatigue (G3)

Question: What about the Dose limiting toxicity ([4]; human, in vivo, 14 days) of the same compound?
Answer: Bone pain (G3)

Question: And the Dose limiting toxicity ([4]; human, in vivo, 15 days)?
Answer: Stress-induced cardiomyopathy (G3)

Question: What about the “DLT grade 2 decreased LVEF” value ([4]; human, in vivo, 21 days) of the same compound?
Answer: 1 events

Question: And the “DLT grade 3 bone pain” value ([4]; human, in vivo, 21 days)?
Answer: 1 events

Question: And the “DLT grade 3 cardiomyopathy” value ([4]; human, in vivo, 21 days)?
Answer: 1 events

Question: What about the “DLT grade 3 fatigue” value ([4]; human, in vivo, 21 days) of the same compound?
Answer: 4 events

Question: What about the “DLT grade 3 hyperglycaemia” value ([4]; human, in vivo, 21 days) of the same compound?
Answer: 1 events

Question: And the “DLT grade 3 maculo-papular rash” value ([4]; human, in vivo, 21 days)?
Answer: 1 events

Question: What about the “DLT grade ⩾2 creatinine rise” value ([4]; human, in vivo, 21 days) of the same compound?
Answer: 2 events

Question: And the Dose limiting toxicity ([4]; human, in vivo, 21 days)?
Answer: Urticaria (G3)

Question: What about the “patients with dose-limiting toxicities (DLT)” value ([4]; human, in vivo, 21 days) of the same compound?
Answer: 11 patients

Question: What about the Dose limiting toxicity ([4]; human, in vivo, 22 days) of the same compound?
Answer: Decreased LVEF (G2)

Question: And the “patients needing a dose reduction” value ([4]; in vivo)?
Answer: over half of the patients

Question: And the “individuals who died during study participation” value ([4]; including post-treatment 30 days follow-up, none judged drug-related)?
Answer: eight

Question: What about the “average reduction in p4EBP1 IHC staining” value ([5]; 90 mg—S1, paired tumour biopsies) of the same compound?
Answer: 22.3%

Question: And the “average reduction in p4EBP1 IHC staining” value ([5]; 120 mg—S1, paired tumour biopsies)?
Answer: 49.5%

Question: And the “average reduction in p4EBP1 IHC staining” value ([5]; 240 mg—S2, paired tumour biopsies)?
Answer: 67.6%

Question: What about the “maximum tolerated dose (MTD) in toxicology studies” value [6] of the same compound?
Answer: 2.5 mg kg^−1 per day

Question: What about the “patients with stable disease at first follow-up radiological assessment” value (advanced solid tumours; 8–12 weeks) of the same compound?
Answer: 29.7%

Question: And the “RECIST responses (complete or partial)” value (advanced solid tumours; all patients)?
Answer: No RECIST responses were recorded; also recorded: No complete or partial responses were observed

Question: What about the “patients free of progression for ⩾24 weeks” value (advanced solid tumours; all patients) of the same compound?
Answer: six

Question: And the “patients with stable disease >6 months” value (advanced solid tumours; all patients)?
Answer: 5%

Question: And the “reduction in the sum of target lesions diameters, single patient” value (advanced solid tumours; metastatic GIST, S1–120 mg)?
Answer: 20%

Question: And the “time on therapy, single patient” value (advanced solid tumours; metastatic GIST, S1–120 mg)?
Answer: 45 weeks

Question: And the “reduction in the size of the lesions, single patient” value (advanced solid tumours; [10])?
Answer: 18%

Question: What about the “time on treatment, single patient” value (advanced solid tumours; [10]) of the same compound?
Answer: 49 weeks

Question: And the “time free of progression, single patient” value (advanced solid tumours; metastatic uveal melanoma, S3–35 mg)?
Answer: 48 weeks
